# Experimental data from ChEMBL document CHEMBL5518215, “Unlocking Antibacterial Potential: Key-Site-Based Regulation of Antibacterial Spectrum of Peptides” (J Med Chem, 2024).
# How the values were obtained:
# Escherichia coli [1] = experiment: Antimicrobial activity against Escherichia coli 25922 assessed as bacterial killing measured after 16 hrs incubation; format: functional
# Salmonella typhimurium [2] = experiment: Antimicrobial activity against Salmonella typhimurium C7731 assessed as absence bacterial growth measured after 18 to 24 hrs incubation by NCCLS method; format: functional, Salmonella enterica subsp. enterica serovar Typhimurium; conditions: Salmonella enterica, time 18-24 hrs
# Staphylococcus aureus [3] = experiment: Antimicrobial activity against Staphylococcus aureus 25923 assessed as bacterial killing measured after 16 hrs incubation; format: functional
# Staphylococcus aureus [4] = experiment: Antimicrobial activity against Methicillin-resistant Staphylococcus aureus 43300 assessed as bacterial killing measured after 16 hrs incubation; format: functional
# Staphylococcus aureus [5] = experiment: Antimicrobial activity against Staphylococcus aureus 29213 assessed as absence bacterial growth measured after 18 to 24 hrs incubation by NCCLS m; format: functional; conditions: time 18-24 hrs
# [6] = Cytotoxicity against human HEK-293T cells assessed as cell survival rate measured after 8 hrs by MTT assay; format: toxicity, cell-based
# Acinetobacter baumannii [7] = experiment: Antimicrobial activity against Acinetobacter baumannii 1.6769 assessed as bacterial killing measured after 16 hrs incubation; format: functional
# Escherichia coli [8] = experiment: Antimicrobial activity against Escherichia coli 25922 assessed as absence bacterial growth measured after 18 to 24 hrs incubation by NCCLS method; format: functional; conditions: time 18-24 hrs
# Escherichia coli [9] = experiment: Antimicrobial activity against Escherichia coli 25922 assessed as absence bacterial growth measured after 18 to 24 hrs incubation in presence of NH4Cl by NCCLS method; format: functional; conditions: time 18-24 hrs
# Listeria monocytogenes [10] = experiment: Antimicrobial activity against Listeria monocytogenes 1.10753 assessed as absence bacterial growth measured after 18 to 24 hrs incubation by NCCLS method; format: functional; conditions: time 18-24 hrs
# Enterococcus faecalis [11] = experiment: Antimicrobial activity against Enterococcus faecalis 29212 assessed as absence bacterial growth measured after 18 to 24 hrs incubation by NCCLS method; format: functional; conditions: time 18-24 hrs
# [12] = test system: Staphylococcus epidermidis; experiment: Antimicrobial activity against Staphylococcus epidermidis 12228 assessed as bacterial killing measured after 16 hrs incubation; format: functional
# Acinetobacter baumannii [13] = experiment: Antimicrobial activity against Acinetobacter baumannii 1.6769 assessed as absence bacterial growth measured after 18 to 24 hrs incubation by NCCLS method; format: functional; conditions: time 18-24 hrs
# Bacillus cereus [14] = experiment: Antimicrobial activity against Bacillus cereus 1.932 assessed as absence bacterial growth measured after 18 to 24 hrs incubation by NCCLS method; format: functional; conditions: time 18-24 hrs
# Escherichia coli [15] = experiment: Antimicrobial activity against Escherichia coli 25922 assessed as absence bacterial growth measured after 18 to 24 hrs incubation in presence of NaCl by NCCLS method; format: functional; conditions: time 18-24 hrs
# Bacillus cereus [16] = experiment: Antimicrobial activity against Bacillus cereus 1.932 assessed as bacterial killing measured after 16 hrs incubation; format: functional
# Escherichia coli [17] = experiment: Antimicrobial activity against Escherichia coli 25922 assessed as absence bacterial growth measured after 18 to 24 hrs incubation in presence of 12.5% serum by NCCLS method; format: functional; conditions: time 18-24 hrs
# Escherichia coli [18] = experiment: Antimicrobial activity against Escherichia coli K88 assessed as bacterial killing measured after 16 hrs incubation; format: functional
# Pseudomonas aeruginosa [19] = experiment: Antimicrobial activity against Pseudomonas aeruginosa 27853 assessed as absence bacterial growth measured after 18 to 24 hrs incubation by NCCLS method; format: functional; conditions: time 18-24 hrs
# Staphylococcus aureus [20] = experiment: Antimicrobial activity against Staphylococcus aureus 29213 assessed as absence bacterial growth measured after 18 to 24 hrs incubation by NCCLS method; format: functional; conditions: time 18-24 hrs
# [21] = test system: Staphylococcus epidermidis; experiment: Antimicrobial activity against Staphylococcus epidermidis 12228 assessed as absence bacterial growth measured after 18 to 24 hrs incubation by NCCLS method; format: functional; conditions: time 18-24 hrs
# [22] = Hemolytic activity in human RBC at effective concentration at 128 uM measured after 1 hr by microplate reader relative to control; format: toxicity, cell-based, Erythrocyte; conditions: human red blood cells (erythrocytes), read-out: Activity
# Staphylococcus aureus [23] = experiment: Antimicrobial activity against Methicillin-resistant Staphylococcus aureus 43300 assessed as absence bacterial growth measured after 18 to 24 hrs incubation by NCCLS method; format: functional; conditions: time 18-24 hrs
# [24] = Cytotoxicity against porcine IPEC-J2 cells assessed as cell survival rate measured after 8 hrs by MTT assay; format: toxicity, cell-based, Sus scrofa; conditions: pig
# Escherichia coli [25] = experiment: Antimicrobial activity against Escherichia coli K88 assessed as absence bacterial growth measured after 18 to 24 hrs incubation by NCCLS method; format: functional; conditions: time 18-24 hrs
# Salmonella typhimurium [26] = experiment: Antimicrobial activity against Salmonella typhimurium C7731 assessed as bacterial killing measured after 16 hrs incubation; format: functional, Salmonella enterica subsp. enterica serovar Typhimurium; conditions: Salmonella enterica
# Pseudomonas aeruginosa [27] = experiment: Antimicrobial activity against Pseudomonas aeruginosa 27853 assessed as bacterial killing measured after 16 hrs incubation; format: functional
# Escherichia coli [28] = experiment: Antimicrobial activity against Escherichia coli 25922 assessed as absence bacterial growth measured after 18 to 24 hrs incubation in presence of 50% serum by NCCLS method; format: functional; conditions: time 18-24 hrs
# Escherichia coli [29] = experiment: Antimicrobial activity against Escherichia coli 25922 assessed as absence bacterial growth measured after 18 to 24 hrs incubation in presence of KCl by NCCLS method; format: functional; conditions: time 18-24 hrs
# Escherichia coli [30] = experiment: Antimicrobial activity against Escherichia coli 25922 assessed as absence bacterial growth measured after 18 to 24 hrs incubation in presence of FeCl3 by NCCLS method; format: functional; conditions: time 18-24 hrs
# Escherichia coli [31] = experiment: Antimicrobial activity against Escherichia coli 25922 assessed as absence bacterial growth measured after 18 to 24 hrs incubation in presence of 25% serum by NCCLS method; format: functional; conditions: time 18-24 hrs
# Staphylococcus aureus [32] = experiment: Antimicrobial activity against Staphylococcus aureus 29213 assessed as bacterial killing measured after 16 hrs incubation; format: functional
# Salmonella typhimurium [33] = experiment: Antimicrobial activity against Salmonella typhimurium 14028 assessed as bacterial killing measured after 16 hrs incubation; format: functional, Salmonella enterica subsp. enterica serovar Typhimurium; conditions: Salmonella enterica
# Listeria monocytogenes [34] = experiment: Antimicrobial activity against Listeria monocytogenes 1.10753 assessed as bacterial killing measured after 16 hrs incubation; format: functional
# [35] = Antimicrobial activity against Salmonella pullorum C7913 assessed as absence bacterial growth measured after 18 to 24 hrs incubation by NCCLS method; format: functional, Salmonella enterica subsp. enterica serovar Pullorum; conditions: Salmonella enterica, time 18-24 hrs
# Erythrocyte = experiment: Hemolytic activity in human RBC at effective concentration measured after 1 hr by microplate reader analysis; format: toxicity, cell-based
# [36] = Cytotoxicity against mouse RAW264.7 cells assessed as cell survival rate measured after 8 hrs by MTT assay; format: toxicity, cell-based
# Escherichia coli [37] = experiment: Antimicrobial activity against Escherichia coli 25922 assessed as absence bacterial growth measured after 18 to 24 hrs incubation in presence of MgCl2 by NCCLS method; format: functional; conditions: time 18-24 hrs
# Salmonella typhimurium [38] = experiment: Antimicrobial activity against Salmonella typhimurium 14028 assessed as absence bacterial growth measured after 18 to 24 hrs incubation by NCCLS method; format: functional, Salmonella enterica subsp. enterica serovar Typhimurium; conditions: Salmonella enterica, time 18-24 hrs
# [39] = Antimicrobial activity against Salmonella pullorum C7913 assessed as bacterial killing measured after 16 hrs incubation; format: functional, Salmonella enterica subsp. enterica serovar Pullorum; conditions: Salmonella enterica
# Enterococcus faecalis [40] = experiment: Antimicrobial activity against Enterococcus faecalis 29212 assessed as bacterial killing measured after 16 hrs incubation; format: functional
# Escherichia coli [41] = experiment: Antimicrobial activity against Escherichia coli 25922 assessed as absence bacterial growth measured after 18 to 24 hrs incubation in presence of ZnCl2 by NCCLS method; format: functional; conditions: time 18-24 hrs
substance,measurement,setting,value
H-AKLWLKGGKLWLKGGKLWLKG-NH2,MBC,Escherichia coli [1],8 µM
same,MIC,Salmonella typhimurium [2],16 µM
same,MBC,Staphylococcus aureus [3],> 32 µM
same,MBC,Staphylococcus aureus [4],> 32 µM
same,MIC,Staphylococcus aureus [5],> 32 µM
same,IC50 at 8 h,[6],> 64 µM
same,MBC,Acinetobacter baumannii [7],16 µM
same,MIC,Escherichia coli [8],4 µM
same,MIC,Escherichia coli [9],4 µM
same,MIC,Listeria monocytogenes [10],> 32 µM
same,MIC,Enterococcus faecalis [11],> 32 µM
same,MBC,[12],> 32 µM
same,MIC,Acinetobacter baumannii [13],16 µM
same,MIC,Bacillus cereus [14],> 32 µM
same,MIC,Escherichia coli [15],> 32 µM
same,MBC,Bacillus cereus [16],> 32 µM
same,MIC,Escherichia coli [17],> 32 µM
same,MBC,Escherichia coli [18],1 µM
same,MIC,Pseudomonas aeruginosa [19],> 32 µM
same,MIC,Staphylococcus aureus [20],> 32 µM
same,MIC,[21],> 32 µM
same,"hemolysis at 1 h, 128 µM",[22],< 10%
same,MIC,Staphylococcus aureus [23],> 32 µM
same,IC50 at 8 h,[24],> 64 µM
same,MIC,Escherichia coli [25],1 µM
same,MBC,Salmonella typhimurium [26],32 µM
same,MBC,Pseudomonas aeruginosa [27],> 32 µM
same,MIC,Escherichia coli [28],> 32 µM
same,MIC,Escherichia coli [29],4 µM
same,MIC,Escherichia coli [30],4 µM
same,MIC,Escherichia coli [31],> 32 µM
same,MBC,Staphylococcus aureus [32],> 32 µM
same,MBC,Salmonella typhimurium [33],16 µM
same,MBC,Listeria monocytogenes [34],> 32 µM
same,MIC,[35],2 µM
same,HC10,Erythrocyte,> 128 µM
same,IC50 at 8 h,[36],> 64 µM
same,MIC,Escherichia coli [37],16 µM
same,MIC,Salmonella typhimurium [38],4 µM
same,MBC,[39],2 µM
same,MBC,Enterococcus faecalis [40],> 32 µM
same,MIC,Escherichia coli [41],4 µM
H-CKLWLKGGKLWLKGGKLWLKG-NH2,MBC,Escherichia coli [1],> 32 µM
same,MIC,Salmonella typhimurium [2],> 32 µM
same,MBC,Staphylococcus aureus [3],> 32 µM
same,MBC,Staphylococcus aureus [4],> 32 µM
same,MIC,Staphylococcus aureus [5],> 32 µM
same,IC50 at 8 h,[6],> 64 µM
same,MBC,Acinetobacter baumannii [7],> 32 µM
same,MIC,Escherichia coli [8],> 32 µM
same,MIC,Escherichia coli [9],> 32 µM
same,MIC,Listeria monocytogenes [10],> 32 µM
same,MIC,Enterococcus faecalis [11],> 32 µM
same,MBC,[12],> 32 µM
same,MIC,Acinetobacter baumannii [13],> 32 µM
same,MIC,Bacillus cereus [14],> 32 µM
same,MIC,Escherichia coli [15],> 32 µM
same,MBC,Bacillus cereus [16],> 32 µM
same,MIC,Escherichia coli [17],32 µM
same,MBC,Escherichia coli [18],2 µM
same,MIC,Pseudomonas aeruginosa [19],> 32 µM
same,MIC,Staphylococcus aureus [20],> 32 µM
same,MIC,[21],> 32 µM
same,"hemolysis at 1 h, 128 µM",[22],< 10%
same,MIC,Staphylococcus aureus [23],> 32 µM
same,IC50 at 8 h,[24],14.3 µM
same,MIC,Escherichia coli [25],2 µM
same,MBC,Salmonella typhimurium [26],> 32 µM
same,MBC,Pseudomonas aeruginosa [27],> 32 µM
same,MIC,Escherichia coli [28],> 32 µM
same,MIC,Escherichia coli [29],> 32 µM
same,MIC,Escherichia coli [30],> 32 µM
same,MIC,Escherichia coli [31],> 32 µM
same,MBC,Staphylococcus aureus [32],> 32 µM
same,MBC,Salmonella typhimurium [33],> 32 µM
same,MBC,Listeria monocytogenes [34],> 32 µM
same,MIC,[35],2 µM
same,HC10,Erythrocyte,> 128 µM
same,IC50 at 8 h,[36],60.1 µM
same,MIC,Escherichia coli [37],> 32 µM
same,MIC,Salmonella typhimurium [38],> 32 µM
same,MBC,[39],2 µM
same,MBC,Enterococcus faecalis [40],> 32 µM
same,MIC,Escherichia coli [41],> 32 µM
H-FKLWLKGGKLWLKGGKLWLKG-NH2,MBC,Escherichia coli [1],8 µM
same,MIC,Salmonella typhimurium [2],> 32 µM
same,MBC,Staphylococcus aureus [3],> 32 µM
same,MBC,Staphylococcus aureus [4],> 32 µM
same,MIC,Staphylococcus aureus [5],> 32 µM
same,IC50 at 8 h,[6],> 64 µM
same,MBC,Acinetobacter baumannii [7],8 µM
same,MIC,Escherichia coli [8],4 µM
same,MIC,Escherichia coli [9],8 µM
same,MIC,Listeria monocytogenes [10],> 32 µM
same,MIC,Enterococcus faecalis [11],> 32 µM
same,MBC,[12],> 32 µM
same,MIC,Acinetobacter baumannii [13],8 µM
same,MIC,Bacillus cereus [14],> 32 µM
same,MIC,Escherichia coli [15],> 32 µM
same,MBC,Bacillus cereus [16],> 32 µM
same,MIC,Escherichia coli [17],16 µM
same,MBC,Escherichia coli [18],1 µM
same,MIC,Pseudomonas aeruginosa [19],32 µM
same,MIC,Staphylococcus aureus [20],> 32 µM
same,MIC,[21],> 32 µM
same,"hemolysis at 1 h, 128 µM",[22],< 10%
same,MIC,Staphylococcus aureus [23],16 µM
same,IC50 at 8 h,[24],20 µM
same,MIC,Escherichia coli [25],1 µM
same,MBC,Salmonella typhimurium [26],> 32 µM
same,MBC,Pseudomonas aeruginosa [27],32 µM
same,MIC,Escherichia coli [28],> 32 µM
same,MIC,Escherichia coli [29],8 µM
same,MIC,Escherichia coli [30],2 µM
same,MIC,Escherichia coli [31],> 32 µM
same,MBC,Staphylococcus aureus [32],32 µM
same,MBC,Salmonella typhimurium [33],16 µM
same,MBC,Listeria monocytogenes [34],> 32 µM
same,MIC,[35],2 µM
same,HC10,Erythrocyte,128 µM
same,IC50 at 8 h,[36],> 64 µM
same,MIC,Escherichia coli [37],> 32 µM
same,MIC,Salmonella typhimurium [38],4 µM
same,MBC,[39],2 µM
same,MBC,Enterococcus faecalis [40],> 32 µM
same,MIC,Escherichia coli [41],8 µM
